According to patent US11739261B2, “Fluorescent probes for acid detection” (THE HONG KONG UNIVERSITY OF SCIENCE AND TECHNOLOGY, priority 2019, dated 2023):

Test: Acid response study of TPI-C in the aggregation state (PL intensity)
Assay type: physicochemical
Method: FIGS. 1A-1C depict PL spectra of TPI-C (10 μM in THF/hexane mixtures with fH=99%) with adding (1A) HCOOH at different concentrations; (1B) CH3COOH at different concentrations; and (1C) CF3COOH at different concentrations.
FIG. 1D is a graph of relative PL intensity (I/I0) at different acid concentrations (x-axis represents acid concentration at (a) 0 M, (b) 1×10^−20 M, (c) 1×10^−14 M and (d) 1×10^−8 M, respectively).
An acid response study of TPI-C in the aggregation state was performed first. The fluorescent intensity response of TPI-C was investigated by adding different acids with various concentrations. In general, the fluorescent intensity of TPI-C was enhanced upon adding the acid. TPI-C responded in this manner to the formic acid, acetic acid (AcOH) and trifluoroacetic acid (TFA) at concentrations as low as 10^−20 M. For the formic acid, its highest intensity enhancement was around 55% at the acid concentration level of 10^−20 M, as shown in FIG. 1A. When AcOH (1×10^−20 M, 1 μL) and TFA (1×10^−20 M, 1 μL) were added to the TPI-C solution, the intensity enhancement of TPI-C was around 120% (FIG. 1B) and 96% (FIG. 1C), respectively.

In the case of `CCCCCCCCn1c(-c2ccc(OC(=O)NCC)cc2)nc(-c2ccccc2)c1-c1ccccc1` [TPI-C], the fluorescent intensity enhancement (AcOH 1×10^−20 M, 1 μL added to TPI-C solution) was “around 120%”, the fluorescent intensity enhancement (TFA 1×10^−20 M, 1 μL added to TPI-C solution) was roughly 96% and the fluorescent intensity enhancement (formic acid 10^−20 M, TPI-C 10 μM in THF/hexane fH=99%, highest enhancement) was “around 55%”. For the same compound, the “acid concentration at which fluorescent intensity is enhanced (as low as)” value (formic acid, AcOH, TFA) was 10^−20 M.
